Measurements reported in paper PMC7287031 (Pharmacology Research & Perspectives, 2020).
Read-outs that look alike come from different tables or passages of the source.

Columns and labels:
[1] = In vitro plasma protein binding (ultrafiltration), dog; format: in vitro ADME; settings: 100 and 1000 ng/mL
Procedure: Stock solutions were spiked into plasma to achieve the intended concentrations. After incubation for 1 hour at 37°C under constant gentle agitation, the spiked plasma samples (n = 3) were centrifuged (2000 g, 10 min, 37°C) in pre‐warmed Centrifree devices. Total radioactivity was determined in the ultrafiltrate (Cu, concentration of unbound compound) and in the sample introduced into the reservoir before ultrafiltration (Cp). The unbound (fu) and the bound (fb) fraction in plasma were calculated as follows: fu (%) = Cu/Cp × 100; fb (%) = 100‐Fu (%).

[2] = Placental transfer (fetal vs maternal plasma), rabbit embryofetal development study; format: in vivo; settings: female, fetal plasma (relative to maternal plasma), rabbits, 3 hours post dose, Day 20 postcoitum, read-out: Fetal plasma concentration as % of maternal plasma concentration
[3] = Human ADME study: mass balance, excretion of radioactivity in urine and feces; format: in vivo; settings: for radioactive dose excreted in urine: N=6, after 504 hours, mean; for Cumulative excretion of radioactivity, Total (urine and feces, mean) / Cumulative excretion of radioactivity, Urine (mean): single oral dose 600 mg, healthy male volunteers, n=6
Procedure: This single‐center, open‐label, single oral dose study enrolled six healthy, non‐smoking, male Caucasian volunteers who were determined as being in good health according to their medical history, physical examination, vital signs, electrocardiogram, laboratory tests, and urinalysis. Healthy male volunteers were selected as the foundation of the extensive human ADME data should be based on a small cohort (6) of young healthy male volunteers with subsequent extension/bridging to actual patients as needed for the investigation of variables such as age, gender, ethnicity, and health on the metabolic profile. Subjects with relevant radiation exposure of > 0.2 mSv in the 12 months prior to the initiation of the study were excluded. […] The study protocol and dosimetry calculations were reviewed by the Independent Ethics Committee for the center, and written informed consent was obtained from all subjects before entering the study.
(§1) Subjects continued to fast for 4 hours after drug administration.
Radioactivity contents in urine and feces homogenates were determined at the bioanalytical laboratory of PRA International, Zuidlaren, the Netherlands. For urine, duplicate (1000 µL) aliquots were placed into 7‐mL glass vials (Perkin Elmer), after which 5 mL of scintillation cocktail (Ultima Gold™, Perkin Elmer) was added. After vortex mixing for 5 seconds, each sample was placed in a Tri‐Carb™ 3100 TR liquid scintillation analyzer (Perkin Elmer, Waltham, MA, USA) 30 minutes before counting. The total [^14C]‐radioactivity of the samples was determined by counting until a statistical error (two standard deviations) of 0.5% was obtained with a counting time of 10 or 30 minutes, depending on the level of radioactivity.
For feces homogenates, quadruplicate, accurately weighed (500 mg) aliquots were dried in a stove at 50 °C for 3 hours. […] The absorber agent for CO2 was 7‐mL Carbo‐Sorb® E (Perkin Elmer). At the end of the combustion cycle, the absorber was mixed with 13 mL of the scintillant Permafluor® E (Perkin Elmer). The samples were placed in the liquid scintillation analyzer for 60 minutes before counting. The total [^14C]‐radioactivity of the samples was determined by counting until a statistical error (2 s) of 0.5% was obtained with a counting time of 10 or 30 minutes, depending on the level of radioactivity.

[4] = Human ADME study: PK of ribociclib and LEQ803 in plasma and urine (validated bioanalytical assay); format: in vivo; settings: for AUC(0-inf) / AUC(0-t) / Cmax / half-life: plasma, po, 600 mg
Procedure: as §1
Plasma aliquots at each time point were subjected to protein precipitation with three volumes of acetonitrile containing 0.1% (v:v) formic acid, followed by dilution and analysis by liquid chromatography‐tandem mass spectrometry in selected reaction monitor‐positive ion mode using heated electrospray ionization as the ionization technique. For urine aliquots, six volumes of acetonitrile containing 0.1% (v:v) formic acid were added, followed by dilution and analysis in the same way as for plasma. Components were separated using a YMC‐Triart C18 (2.0 x 30 mm, 1.9 µm) column (YMC Co. Ltd.). […] Mobile phase A was 0.1% formic acid in H2O while mobile phase B was 0.1% formic acid in ACN:Isopropanol 8:2 v:v.

CN(C)C(=O)c1cc2cnc(Nc3ccc(N4CCNCC4)cn3)nc2n1C1CCCC1 [ribociclib, Ribociclib]
fraction unbound at 1 h [1]: 0.34 ± 0.01
Kp at 3 h [2]: 0.06
radioactive dose excreted in urine ([3]; human, single oral 600 mg [14C]-ribociclib): 22.6%
radioactive dose excreted in urine ([3]; human, single oral 600 mg [14C]-ribociclib, listed as [^14C]‐ribociclib): 22.6 ± 5.39%
mass balance (total recovery of radioactivity) ([3]; human, single oral 600 mg [14C]-ribociclib, N=6, mean): 91.7 ± 1.01%
Oral absorption (estimate) ([3]; human, radioactivity in urine plus radiolabeled metabolites in feces, assuming all formed systemically): approximately 58.8%
Cumulative excretion of radioactivity, Total (urine and feces, mean) ([3]; time 0 h): 0 % of dose
Cumulative excretion of radioactivity, Urine (mean) ([3]; time 0 h): 0 % of dose
Cumulative excretion of radioactivity, Urine (mean) ([3]; time 6 h): 4.85 % of dose
Cumulative excretion of radioactivity, Urine (mean) ([3]; time 12 h): 9.15 % of dose
Cumulative excretion of radioactivity, Total (urine and feces, mean) ([3]; time 24 h): 17.2 % of dose
Cumulative excretion of radioactivity, Urine (mean) ([3]; time 24 h): 12.9 % of dose
Cumulative excretion of radioactivity, Total (urine and feces, mean) ([3]; time 48 h): 47.5 % of dose
Cumulative excretion of radioactivity, Urine (mean) ([3]; time 48 h): 17.0 % of dose
Cumulative excretion of radioactivity, Total (urine and feces, mean) ([3]; time 72 h): 63.9 % of dose
Cumulative excretion of radioactivity, Urine (mean) ([3]; time 72 h): 19.0 % of dose
Cumulative excretion of radioactivity, Total (urine and feces, mean) ([3]; time 96 h): 75.9 % of dose
Cumulative excretion of radioactivity, Urine (mean) ([3]; time 96 h): 20.2 % of dose
Cumulative excretion of radioactivity, Total (urine and feces, mean) ([3]; time 120 h): 79.7 % of dose
Cumulative excretion of radioactivity, Urine (mean) ([3]; time 120 h): 20.9 % of dose
Cumulative excretion of radioactivity, Total (urine and feces, mean) ([3]; time 144 h): 83.8 % of dose
Cumulative excretion of radioactivity, Urine (mean) ([3]; time 144 h): 21.4 % of dose
Cumulative excretion of radioactivity, Total (urine and feces, mean) ([3]; time 168 h): 86.7 % of dose
Cumulative excretion of radioactivity, Urine (mean) ([3]; time 168 h): 21.8 % of dose
Cumulative excretion of radioactivity, Total (urine and feces, mean) ([3]; time 216 h): 88.6 % of dose
Cumulative excretion of radioactivity, Urine (mean) ([3]; time 216 h): 22.2 % of dose
Cumulative excretion of radioactivity, Total (urine and feces, mean) ([3]; time 240 h): 89.1 % of dose
Cumulative excretion of radioactivity, Urine (mean) ([3]; time 240 h): 22.3 % of dose
Cumulative excretion of radioactivity, Total (urine and feces, mean) ([3]; time 264 h): 89.6 % of dose
Cumulative excretion of radioactivity, Urine (mean) ([3]; time 264 h): 22.5 % of dose
Cumulative excretion of radioactivity, Total (urine and feces, mean) ([3]; time 288 h): 90.3 % of dose
Cumulative excretion of radioactivity, Urine (mean) ([3]; time 288 h): 22.5 % of dose
Cumulative excretion of radioactivity, Total (urine and feces, mean) ([3]; time 336 h): 90.9 % of dose
Cumulative excretion of radioactivity, Urine (mean) ([3]; time 336 h): 22.6 % of dose
Cumulative excretion of radioactivity, Total (urine and feces, mean) ([3]; time 360 h): 91.1 % of dose
Cumulative excretion of radioactivity, Urine (mean) ([3]; time 360 h): 22.6 % of dose
Cumulative excretion of radioactivity, Total (urine and feces, mean) ([3]; time 384 h): 91.3 % of dose
Cumulative excretion of radioactivity, Urine (mean) ([3]; time 384 h): 22.6 % of dose
Cumulative excretion of radioactivity, Total (urine and feces, mean) ([3]; time 408 h): 91.4 % of dose
Cumulative excretion of radioactivity, Urine (mean) ([3]; time 408 h): 22.6 % of dose
Cumulative excretion of radioactivity, Total (urine and feces, mean) ([3]; time 432 h): 91.6 % of dose
Cumulative excretion of radioactivity, Urine (mean) ([3]; time 432 h): 22.6 % of dose
Cumulative excretion of radioactivity, Total (urine and feces, mean) ([3]; time 456 h): 91.6 % of dose
Cumulative excretion of radioactivity, Urine (mean) ([3]; time 456 h): 22.6 % of dose
Cumulative excretion of radioactivity, Total (urine and feces, mean) ([3]; time 480 h): 91.7 % of dose
Cumulative excretion of radioactivity, Urine (mean) ([3]; time 480 h): 22.6 % of dose
Cumulative excretion of radioactivity, Total (urine and feces, mean) ([3]; time 504 h): 91.7 % of dose
Cumulative excretion of radioactivity, Urine (mean) ([3]; time 504 h): 22.6 % of dose
Ribociclib in urine by validated bioanalytical assay ([4]; human): 6.75 % of the dose
renal clearance lower than non-renal clearance ([4]; human): more than 10 fold
Tmax ([4]; human plasma, bioanalytical assay, single oral 600 mg, N=6, read-out: tmax, median (range)): 1.75 h
AUC(0-inf) ([4]; human, human plasma, bioanalytical assay, single oral 600 mg, N=6, read-out: AUCinf, arithmetic mean (CV %)): 8700 ng·h/mL
AUC(0-inf) ([4]; human, human plasma, bioanalytical assay, single oral 600 mg, N=6, read-out: AUCinf, median): 8880 ng·h/mL
AUC(0-t) ([4]; human, human plasma, bioanalytical assay, single oral 600 mg, N=6, read-out: AUClast, arithmetic mean (CV %)): 8600 ng·h/mL
AUC(0-t) ([4]; human, human plasma, bioanalytical assay, single oral 600 mg, N=6, read-out: AUClast, median): 8780 ng·h/mL
Cmax ([4]; human, human plasma, bioanalytical assay, single oral 600 mg, N=6, read-out: Cmax, arithmetic mean (CV %)): 507 ng/mL
Cmax ([4]; human, human plasma, bioanalytical assay, single oral 600 mg, N=6, read-out: Cmax, median): 518 ng/mL
half-life ([4]; human, human plasma, bioanalytical assay, single oral 600 mg, N=6, read-out: t½, arithmetic mean (CV %) (converted)): 54.7 h
half-life ([4]; human, human plasma, bioanalytical assay, single oral 600 mg, N=6, read-out: t½, median (converted)): 49.4 h
CL/F, median ([4]; human, single oral 600 mg): 70.2 L/h
CL renal ([4]; male, plasma and urine, human, single oral 600 mg, read-out: renal clearance, median (converted)): 92.5 mL/min
